Test results taken from PubChem BioAssay AID2060484 (Molecular Pharmacology Branch, DTP, NCI, 2025).

Test system: SUM149PT spheroids with HUVEC/MSC, viability
Assay: Anticancer human tumor SUM149PT cell line growth inhibition [GQUAD];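 note: spheroids exposed to drugs for seven days before readout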;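 for viability, T/C: percent viability relative to DMSO vehicle control taken as 100%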
Details: for IC50: curve of first compound; for viability, T/C: stronger effect = lower value
How it was run: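 Multi-cell-type spheroids of tumor cells with HUVEC and mesenchymal stem cells, treated with drug combinations. Concentrations descend in half-log steps from near clinical Cmax, or from 10 microM where Cmax is unknown; viability read-out.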

[1] = second compound 0.0316 µM, first compound 0.0316 µM
[2] = second compound 0.0316 µM, first compound 0.1 µM
[3] = second compound 0.0316 µM, first compound 0.316 µM
[4] = second compound 0.0316 µM, first compound 1 µM
[5] = second compound 0.0316 µM, first compound 3.16 µM
[6] = second compound 0.0316 µM, first compound 10 µM
[7] = second compound 0.1 µM, first compound 0.0316 µM
[8] = second compound 0.1 µM, first compound 0.1 µM
[9] = second compound 0.1 µM, first compound 0.316 µM
[10] = second compound 0.1 µM, first compound 1 µM
[11] = second compound 0.1 µM, first compound 3.16 µM
[12] = second compound 0.1 µM, first compound 10 µM
[13] = second compound 0.316 µM, first compound 0.0316 µM
[14] = second compound 0.316 µM, first compound 0.1 µM
[15] = second compound 0.316 µM, first compound 0.316 µM
[16] = second compound 0.316 µM, first compound 1 µM
[17] = second compound 0.316 µM, first compound 3.16 µM
[18] = second compound 0.316 µM, first compound 10 µM
[19] = second compound 1 µM, first compound 0.0316 µM
[20] = second compound 1 µM, first compound 0.1 µM
[21] = second compound 1 µM, first compound 0.316 µM
[22] = second compound 1 µM, first compound 1 µM
[23] = second compound 1 µM, first compound 3.16 µM
[24] = second compound 1 µM, first compound 10 µM
[25] = second compound 3.16 µM, first compound 0.0316 µM
[26] = second compound 3.16 µM, first compound 0.1 µM
[27] = second compound 3.16 µM, first compound 0.316 µM
[28] = second compound 3.16 µM, first compound 1 µM
[29] = second compound 3.16 µM, first compound 3.16 µM
[30] = second compound 3.16 µM, first compound 10 µM
[31] = second compound 10 µM, first compound 0.0316 µM
[32] = second compound 10 µM, first compound 0.1 µM
[33] = second compound 10 µM, first compound 0.316 µM
[34] = second compound 10 µM, first compound 1 µM
[35] = second compound 10 µM, first compound 3.16 µM
[36] = second compound 10 µM, first compound 10 µM

## COc1cc(C2c3cc4c(cc3C(OC3OC5COC(C)OC5C(O)C3O)C3COC(=O)C23)OCO4)cc(OC)c1O (stereo unspecified) + CN(C)c1ccc(Nc2c3ccc(NC(=O)CCN4CCCC4)cc3nc3cc(NC(=O)CCN4CCCC4)ccc23)cc1
Second compound 0.0316 µM
  IC50: 1270 nM
Second compound 0.1 µM
  IC50: 1260 nM
Second compound 0.316 µM
  IC50: 1310 nM
Second compound 1 µM
  IC50: 732 nM
Second compound 3.16 µM
  IC50: 652 nM
Second compound 10 µM
  IC50: 619 nM
[1]
  viability, T/C: 107%
[2]
  viability, T/C: 84.8%
[3]
  viability, T/C: 62.9%
[4]
  viability, T/C: 55.2%
[5]
  viability, T/C: 44.8%
[6]
  viability, T/C: 21.6%
[7]
  viability, T/C: 102%
[8]
  viability, T/C: 88.8%
[9]
  viability, T/C: 59.5%
[10]
  viability, T/C: 55%
[11]
  viability, T/C: 44.7%
[12]
  viability, T/C: 21.4%
[13]
  viability, T/C: 87.8%
[14]
  viability, T/C: 78.1%
[15]
  viability, T/C: 59.8%
[16]
  viability, T/C: 59.5%
[17]
  viability, T/C: 40.2%
[18]
  viability, T/C: 18.1%
[19]
  viability, T/C: 87.4%
[20]
  viability, T/C: 75.3%
[21]
  viability, T/C: 54.4%
[22]
  viability, T/C: 48.1%
[23]
  viability, T/C: 36.8%
[24]
  viability, T/C: 20.5%
[25]
  viability, T/C: 86.6%
[26]
  viability, T/C: 74.6%
[27]
  viability, T/C: 49.7%
[28]
  viability, T/C: 48%
[29]
  viability, T/C: 37.4%
[30]
  viability, T/C: 17.6%
[31]
  viability, T/C: 85.9%
[32]
  viability, T/C: 68.5%
[33]
  viability, T/C: 49.1%
[34]
  viability, T/C: 48.7%
[35]
  viability, T/C: 41%
[36]
  viability, T/C: 18.3%

## Cc1cccc(N(C)C(=O)C2C(O)CCN2c2nc(C)cc(C(F)(F)F)c2C#N)c1 (stereo unspecified) + CN(C)c1ccc(Nc2c3ccc(NC(=O)CCN4CCCC4)cc3nc3cc(NC(=O)CCN4CCCC4)ccc23)cc1
Second compound 0.0316 µM
  IC50: > 10000 nM
Second compound 0.1 µM
  IC50: > 10000 nM
Second compound 0.316 µM
  IC50: > 10000 nM
Second compound 1 µM
  IC50: > 10000 nM
Second compound 3.16 µM
  IC50: > 10000 nM
Second compound 10 µM
  IC50: 4020 nM
[1]
  viability, T/C: 97.4%
[2]
  viability, T/C: 103%
[3]
  viability, T/C: 104%
[4]
  viability, T/C: 103%
[5]
  viability, T/C: 107%
[6]
  viability, T/C: 110%
[7]
  viability, T/C: 108%
[8]
  viability, T/C: 95.3%
[9]
  viability, T/C: 91.5%
[10]
  viability, T/C: 100%
[11]
  viability, T/C: 98.7%
[12]
  viability, T/C: 103%
[13]
  viability, T/C: 92.7%
[14]
  viability, T/C: 93.7%
[15]
  viability, T/C: 88.7%
[16]
  viability, T/C: 101%
[17]
  viability, T/C: 94%
[18]
  viability, T/C: 90.6%
[19]
  viability, T/C: 85.8%
[20]
  viability, T/C: 85.2%
[21]
  viability, T/C: 76.2%
[22]
  viability, T/C: 87.9%
[23]
  viability, T/C: 84.9%
[24]
  viability, T/C: 81.5%
[25]
  viability, T/C: 99.2%
[26]
  viability, T/C: 71%
[27]
  viability, T/C: 77.2%
[28]
  viability, T/C: 77.1%
[29]
  viability, T/C: 91.2%
[30]
  viability, T/C: 68%
[31]
  viability, T/C: 82.1%
[32]
  viability, T/C: 82.3%
[33]
  viability, T/C: 74.3%
[34]
  viability, T/C: 76%
[35]
  viability, T/C: 53%
[36]
  viability, T/C: 37.9%

## Cn1ncnc1[C@H]1c2n[nH]c(=O)c3cc(F)cc(c23)N[C@@H]1c1ccc(F)cc1 + CN(C)c1ccc(Nc2c3ccc(NC(=O)CCN4CCCC4)cc3nc3cc(NC(=O)CCN4CCCC4)ccc23)cc1
Second compound 0.0316 µM
  IC50: > 316 nM
Second compound 0.1 µM
  IC50: > 316 nM
Second compound 0.316 µM
  IC50: > 316 nM
Second compound 1 µM
  IC50: > 316 nM
Second compound 3.16 µM
  IC50: > 316 nM
Second compound 10 µM
  IC50: > 316 nM
Second compound 0.0316 µM, first compound 0.000999 µM
  viability, T/C: 110%
Second compound 0.0316 µM, first compound 0.00316 µM
  viability, T/C: 91.4%
Second compound 0.0316 µM, first compound 0.00999 µM
  viability, T/C: 94.5%
[1]
  viability, T/C: 92.1%
Second compound 0.0316 µM, first compound 0.0999 µM
  viability, T/C: 91.9%
[3]
  viability, T/C: 69.4%
Second compound 0.1 µM, first compound 0.000999 µM
  viability, T/C: 95%
Second compound 0.1 µM, first compound 0.00316 µM
  viability, T/C: 99.5%
Second compound 0.1 µM, first compound 0.00999 µM
  viability, T/C: 91.5%
[7]
  viability, T/C: 89.5%
Second compound 0.1 µM, first compound 0.0999 µM
  viability, T/C: 92.4%
[9]
  viability, T/C: 66.6%
Second compound 0.316 µM, first compound 0.000999 µM
  viability, T/C: 96%
Second compound 0.316 µM, first compound 0.00316 µM
  viability, T/C: 83.4%
Second compound 0.316 µM, first compound 0.00999 µM
  viability, T/C: 98.1%
[13]
  viability, T/C: 78.2%
Second compound 0.316 µM, first compound 0.0999 µM
  viability, T/C: 81.1%
[15]
  viability, T/C: 64.9%
Second compound 1 µM, first compound 0.000999 µM
  viability, T/C: 87.6%
Second compound 1 µM, first compound 0.00316 µM
  viability, T/C: 88.1%
Second compound 1 µM, first compound 0.00999 µM
  viability, T/C: 77%
[19]
  viability, T/C: 81.5%
Second compound 1 µM, first compound 0.0999 µM
  viability, T/C: 81.2%
[21]
  viability, T/C: 56.7%
Second compound 3.16 µM, first compound 0.000999 µM
  viability, T/C: 79.3%
Second compound 3.16 µM, first compound 0.00316 µM
  viability, T/C: 89%
Second compound 3.16 µM, first compound 0.00999 µM
  viability, T/C: 80.3%
[25]
  viability, T/C: 80.8%
Second compound 3.16 µM, first compound 0.0999 µM
  viability, T/C: 73.8%
[27]
  viability, T/C: 56%
Second compound 10 µM, first compound 0.000999 µM
  viability, T/C: 88.9%
Second compound 10 µM, first compound 0.00316 µM
  viability, T/C: 79%
Second compound 10 µM, first compound 0.00999 µM
  viability, T/C: 72.2%
[31]
  viability, T/C: 83.5%
Second compound 10 µM, first compound 0.0999 µM
  viability, T/C: 74.2%
[33]
  viability, T/C: 52.3%
